Assay results as given in article PMC12388242, “Cytotoxic Peptidic Metabolites Isolated from the Soil-Derived Fungus Trichoderma atroviride” (Molecules, 2025).
“And” between values parts separate entries of the source, which are not always exact repeats. Equal entries are not always repeated. Where two headings read alike, the source gives them in different places. Where a SMILES comes first, the peptide text is derived from it. [ ]: non-standard residue; d: D form. The star is where a group is joined. X2 = CO[C@@H]1NC(=O)CC[C@@H]1N*; X3 = O=C1CC[C@H](N*)[C@@H](O)N1; X1 = O=C1CC[C@H](N*)[C@H](O)N1; Valol = CC(C)[C@@H](CO)N*; Aib = CC(C)(N)C(=O)O

How the values were obtained:
[1] = system: SK-OV-3 (ovarian cancer) cells; assay: MTT cell viability assay, SK-OV-3 cells; settings: for IC50: read-out: IC50 against SK-OV-3 (Ovarian Cancer)
Procedure: (§1) HCT-8 (colorectal carcinoma), and SK-OV-3 (ovarian cancer) cell lines were obtained from the American Type Culture Collection (ATCC; Manassas, VA, USA). The cells were cultured in RPMI-1640 medium (Cytiva, Marlborough, MA, USA) supplemented with 10% fetal bovine serum (FBS), 100 U/mL penicillin, and streptomycin, and incubated in a humidified atmosphere with 5% CO2 at 37 °C [23].
(§2) Cell viability was determined using the 3-(4,5-dimethylthiazol-2-yl)-2,5-diphenyltetrazolium bromide (MTT) colorimetric assay (Sigma Chemical Co., St. Louis, MO). Cells were seeded in 96-well plates and incubated at 37 °C for 24 h. Subsequently, cells were treated with isolated compounds at concentrations of 2, 20, and 100 μM for an additional 24 h. After treatment, 25 μL of MTT solution (5 mg/mL; Thermo Fisher Scientific, Waltham, MA, USA) was added to each well and incubated for 3 h. The resulting formazan crystals were dissolved in 100 μL of dimethyl sulfoxide, and the absorbance was measured at 550 nm using an ELx808 microplate reader (BioTek Instruments Inc., Winooski, VT, USA).

[2] = system: HCT-8 (colon cancer) cells; assay: MTT cell viability assay, HCT-8 cells; settings: for IC50: read-out: IC50 against HCT-8 (Colon Cancer)
Procedure: as §1, §2

[3] = MTT colorimetric assay, 96-well plates, treated at 2, 20, and 100 μM for 24 h, absorbance at 550 nm, mean ± standard deviation from triplicate experiments

With `CC(=O)N[C@@H](Cc1c[nH]c2ccccc12)C(=O)NCC(=O)N[C@@H](C)C(=O)NC(C)(C)C(=O)NC(C)(C)C(=O)N[C@@H](CCC(N)=O)C(=O)NC(C)(C)C(=O)NC(C)(C)C(=O)NC(C)(C)C(=O)N[C@@H](CO)C(=O)N[C@@H](CC(C)C)C(=O)NC(C)(C)C(=O)N1CCC[C@H]1C(=O)N[C@H](C(=O)NC(C)(C)C(=O)N[C@@H](CC(C)C)C(=O)N[C@@H](CCC(N)=O)C(=O)N[C@@H](CCC(N)=O)C(=O)N[C@H](CO)C(C)C)C(C)C` [Compound 2, bukhansantaibol B] (Ac-WGA[Aib][Aib]Q[Aib][Aib][Aib]SL[Aib]PV[Aib]LQQ-Valol) the IC50 [1, 3] was 13.8 ± 1 µM and the IC50 [2, 3] was 11.7 ± 0.8 µM.
Compound `CC[C@H](C)[C@H](NC(=O)C(C)(C)NC(=O)[C@@H](NC(=O)[C@@H]1CCCN1C(=O)C(C)(C)NC(=O)[C@H](CC(C)C)NC(=O)[C@H](CO)NC(=O)C(C)(C)NC(=O)C(C)(C)NC(=O)C(C)(C)NC(=O)[C@H](CCC(N)=O)NC(=O)C(C)(C)NC(=O)C(C)(C)NC(=O)[C@H](C)NC(=O)CNC(=O)[C@H](Cc1ccccc1)NC(C)=O)C(C)C)C(=O)N[C@@H](CCC(N)=O)C(=O)N[C@@H](CCC(N)=O)C(=O)N[C@H](CO)C(C)C` [Compound 3, bukhansantaibol C] (Ac-FGA[Aib][Aib]Q[Aib][Aib][Aib]SL[Aib]PV[Aib]IQQ-Valol) has an IC50 [1, 3] of 19.6 ± 0.1 µM and an IC50 [2, 3] of 18.5 ± 0.6 µM.
For `CC[C@H](C)[C@H](NC(=O)C(C)(C)NC(=O)[C@@H](NC(=O)[C@@H]1CCCN1C(=O)C(C)(C)NC(=O)[C@H](CC(C)C)NC(=O)[C@H](C)NC(=O)C(C)(C)NC(=O)C(C)(C)NC(=O)C(C)(C)NC(=O)[C@H](CCC(N)=O)NC(=O)C(C)(C)NC(=O)C(C)(C)NC(=O)[C@H](C)NC(=O)CNC(=O)[C@H](Cc1c[nH]c2ccccc12)NC(C)=O)C(C)C)C(=O)N[C@@H](CCC(N)=O)C(=O)N[C@@H](CCC(N)=O)C(=O)N[C@H](CO)C(C)C` [Compound 4, bukhansantaibol D] (Ac-WGA[Aib][Aib]Q[Aib][Aib][Aib]AL[Aib]PV[Aib]IQQ-Valol), the IC50 [1, 3] was < 10 µM and 5.7 µM and the IC50 [2, 3] was < 10 µM and 7.7 µM.
With `CC[C@H](C)[C@H](NC(=O)C(C)(C)NC(=O)[C@@H](NC(=O)[C@@H]1CCCN1C(=O)C(C)(C)NC(=O)[C@H](CC(C)C)NC(=O)[C@H](CO)NC(=O)C(C)(C)NC(=O)C(C)(C)NC(=O)C(C)(C)NC(=O)[C@H](CCC(N)=O)NC(=O)C(C)(C)NC(=O)C(C)(C)NC(=O)[C@H](C)NC(=O)CNC(=O)[C@H](Cc1ccccc1)NC(C)=O)C(C)C)C(=O)N[C@@H](CCC(=O)O)C(=O)N[C@@H](CCC(N)=O)C(=O)N[C@H](CO)C(C)C` [Compound 6, bukhansantaibol F] (Ac-FGA[Aib][Aib]Q[Aib][Aib][Aib]SL[Aib]PV[Aib]IEQ-Valol) the IC50 [1, 3] was over 50 µM and the IC50 [2, 3] was over 50 µM.
`CC[C@H](C)[C@H](NC(=O)C(C)(C)NC(=O)[C@@H](NC(=O)[C@@H]1CCCN1C(=O)C(C)(C)NC(=O)[C@H](CC(C)C)NC(=O)[C@H](CO)NC(=O)C(C)(C)NC(=O)C(C)(C)NC(=O)C(C)(C)NC(=O)[C@H](CCC(N)=O)NC(=O)C(C)(C)NC(=O)C(C)(C)NC(=O)[C@H](C)NC(=O)CNC(=O)[C@H](Cc1c[nH]c2ccccc12)NC(C)=O)C(C)C)C(=O)N[C@H]1CCC(=O)N[C@H]1O` [Compound 7, bukhansantaibol G] (Ac-WGA[Aib][Aib]Q[Aib][Aib][Aib]SL[Aib]PV[Aib]I-X1) was tested, and the IC50 [1, 3] was over 50 µM and the IC50 [2, 3] was over 50 µM.
`CC[C@H](C)[C@H](NC(=O)C(C)(C)NC(=O)[C@@H](NC(=O)[C@@H]1CCCN1C(=O)C(C)(C)NC(=O)[C@H](CC(C)C)NC(=O)[C@H](CO)NC(=O)C(C)(C)NC(=O)C(C)(C)NC(=O)C(C)(C)NC(=O)[C@H](CCC(N)=O)NC(=O)C(C)(C)NC(=O)C(C)(C)NC(=O)[C@H](C)NC(=O)CNC(=O)[C@H](Cc1c[nH]c2ccccc12)NC(C)=O)C(C)C)C(=O)N[C@H]1CCC(=O)N[C@@H]1O` [Compound 8, bukhansantaibol H] (Ac-WGA[Aib][Aib]Q[Aib][Aib][Aib]SL[Aib]PV[Aib]I-X3) gave an IC50 [1, 3] of over 50 µM and an IC50 [2, 3] of over 50 µM.
In the case of `CC[C@H](C)[C@H](NC(=O)C(C)(C)NC(=O)[C@@H](NC(=O)[C@@H]1CCCN1C(=O)C(C)(C)NC(=O)[C@H](CC(C)C)NC(=O)[C@H](CO)NC(=O)C(C)(C)NC(=O)C(C)(C)NC(=O)C(C)(C)NC(=O)[C@H](CCC(N)=O)NC(=O)C(C)(C)NC(=O)C(C)(C)NC(=O)[C@H](C)NC(=O)CNC(=O)[C@H](Cc1c[nH]c2ccccc12)NC(C)=O)C(C)C)C(=O)N[C@H]1CCC(=O)N[C@H]1OC` [Compound 9, bukhansantaibol I] (Ac-WGA[Aib][Aib]Q[Aib][Aib][Aib]SL[Aib]PV[Aib]I-X2), the “cytotoxicity against SK-OV-3 cells, in words” value [1] is reported as “marked loss of cytotoxicity”, the IC50 [1, 3] is reported as over 50 µM and the “cytotoxicity against HCT-8 cells, in words” value [2] is reported as “marked loss of cytotoxicity”. The IC50 [2, 3] was over 50 µM.
In the case of `CC[C@H](C)[C@H](NC(=O)C(C)(C)NC(=O)[C@@H](NC(=O)[C@@H]1CCCN1C(=O)C(C)(C)NC(=O)[C@H](CC(C)C)NC(=O)[C@H](CO)NC(=O)C(C)(C)NC(=O)C(C)(C)NC(=O)C(C)(C)NC(=O)[C@H](CCC(N)=O)NC(=O)C(C)(C)NC(=O)C(C)(C)NC(=O)[C@H](C)NC(=O)CNC(=O)[C@H](Cc1ccccc1)NC(C)=O)C(C)C)C(=O)N[C@H]1CCC(=O)N[C@H]1OC` [Compound 10, bukhansantaibol J] (Ac-FGA[Aib][Aib]Q[Aib][Aib][Aib]SL[Aib]PV[Aib]I-X2), the “cytotoxicity against SK-OV-3 cells, in words” value [1] is reported as “marked loss of cytotoxicity”, the IC50 [1, 3] is reported as over 50 µM and the “cytotoxicity against HCT-8 cells, in words” value [2] is reported as “marked loss of cytotoxicity”. The IC50 [2, 3] was over 50 µM.
With `CC[C@H](C)[C@H](NC(=O)C(C)(C)NC(C)=O)C(=O)NC(C)(C)C(=O)N[C@@H](Cc1ccc(O)cc1)C(=O)NC(C)(C)C(=O)N[C@@H](CC(C)C)C(=O)NC(C)(C)C(=O)N[C@@H](C)C(=O)NC(C)(C)C(=O)NC(C)(C)C=O` [Compound 11, bukhansantaibal A] (Ac-[Aib]I[Aib]Y[Aib]L[Aib]A[Aib][Aib]-aldehyde) the “cytotoxicity against SK-OV-3 cells, in words” value [1] was “inactivity”, the IC50 [1, 3] was over 50 µM and the “cytotoxicity against HCT-8 cells, in words” value [2] was “inactivity”. It also gave an IC50 [2, 3] of over 50 µM.
In the case of `CC[C@H](C)[C@H](NC(=O)C(C)(C)NC(C)=O)C(=O)NC(C)(C)C(=O)N[C@@H](Cc1ccc(O)cc1)C(=O)NC(C)(C)C(=O)N[C@H](C(=O)NC(C)(C)C(=O)N[C@@H](C)C(=O)NC(C)(C)C(=O)NC(C)(C)C=O)[C@@H](C)CC` [Compound 12, bukhansantaibal B] (Ac-[Aib]I[Aib]Y[Aib]I[Aib]A[Aib][Aib]-aldehyde), the “cytotoxicity against SK-OV-3 cells, in words” value [1] is reported as “inactivity”, the IC50 [1, 3] is reported as over 50 µM and the “cytotoxicity against HCT-8 cells, in words” value [2] is reported as “inactivity”. It also gave an IC50 [2, 3] of over 50 µM.
`COc1cc([C@@H]2c3cc4c(cc3[C@@H](O[C@@H]3O[C@@H]5CO[C@@H](C)O[C@H]5[C@H](O)[C@H]3O)[C@H]3COC(=O)[C@H]23)OCO4)cc(OC)c1O` [Etoposide, reference compound] was tested, and the IC50 ([1]; Homo sapiens, SK-OV-3, 24 h) was 37.3 ± 1.8 µM and the IC50 ([2]; Homo sapiens, HCT-8, 24 h) was 33.7 ± 1.5 µM.
